Values joined by “and” are separate entries in the source; they are usually repeats but may differ in a detail not shown here. Equal values may be shown once.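 These data come from cells grown in 96-well plates and exposed to compound for 48 hours at five concentrations. GI50 = concentration required for 50% inhibition of growth. At the TGI there is no net growth.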
Test system: MDA-MB-468 breast
Assay: NCI-60 cell line screen, 48 h

Compound | GI50 | TGI
Cc1ccc(-c2nc3nc(-c4ccc(Br)cc4)nc(N4CCCNCC4)c3o2)cc1 | 3980 nM | 15900 nM
COc1ccc(C(=O)c2cc(OC)c(OC)c(OC)c2)cc1OC(=O)C(Cl)(Cl)Cl | 542 nM | 
N#C/C(=C1C=C/C(=N/O)C(Cl)=C/1)c1ccc(Cl)cc1 | 3000 nM | 9700 nM
C=CC(C)c1cccc(C=O)c1O (stereo not drawn) | 51600 nM | > 100000 nM
CC(C)C[C@@H](NC(=O)[C@@H](Cc1ccccc1)NC(=O)c1cnccn1)B1Oc2ccc(C[C@H](NC(=O)[C@H](Cc3ccc4c(c3)OB([C@@H](CC(C)C)NC(=O)[C@@H](Cc3ccccc3)NC(=O)c3cnccn3)O4)NC(=O)[C@@H](N)CC3CCC4OB([C@@H](CC(C)C)NC(=O)[C@@H](CC5CCCCC5)NC(=O)C5CNCCN5)OC4C3)C(=O)NCCCC[C@@H]3NC(=O)[C@@H](Cc4ccccc4)NC(=O)[C@H](CC(=O)O)NC(=O)CNC(=O)[C@H](CCCNC(=N)N)NC3=O)cc2O1 (stereo partly drawn) | 2.72 nM and < 2.5 nM | 7.22 nM and < 2.5 nM
CCN(Cc1ccccn1)c1ccc(CO)c(Cl)c1 | 127 nM | 331 nM
CCCC(=O)OCC1OC(n2cnc3c(=S)nc(N)[nH]c32)C(OC(=O)CCC)C1OC(=O)CCC (stereo not drawn) | 332 nM | 2670 nM
O=C1CCc2c(Oc3ccc4c(c3)[C@H]3[C@@H](O4)[C@@H]3c3nc4ccc(C(F)(F)F)cc4[nH]3)ccnc2N1 | 1740 nM | 7130 nM
CC(C)N(Cc1c(F)cccc1F)c1ccc(CO)c(Cl)c1 | 18.7 nM | 53.1 nM
COc1ccc(C2=C(c3cn(C)c4ccccc34)C(=O)OC2)cc1OC | 1650 nM | > 100000 nM
O=C(NC1CCCCC1)OCc1c(COC(=O)NC2CCCCC2)c(-c2ccc(Cl)c(Cl)c2)n2c1CCC2 | 1800 nM | 10900 nM
C/C=C/C1=CN2C(=O)c3cc(OC4OC(C)C(NC)C(C)(O)C4O)c(C)cc3N=C[C@@H]2C1 (stereo partly drawn) | 10.7 nM | 28.2 nM
O=c1nc(Nc2ccc([N+](=O)[O-])cc2O)sc2ccccc12 | 340 nM | 1210 nM
Cc1ccc2cc3c(cc(C)c4ccccc43)c3c2c1CC3 | > 100000 nM | > 100000 nM
O=S(=O)(Nc1ccc(Cl)c(F)c1)c1ccc(-c2cnc(C3CC3)o2)cc1 | 187 nM | 998 nM
O=C(Nc1ccc(F)cc1F)c1cc(F)ccc1O | 2600 nM | 7880 nM
COc1ccc2c(c1)O/C(=C\c1ncc([N+](=O)[O-])n1C)C2=O | 1330 nM | 3720 nM

Reference: PubChem BioAssay (NCI)
